Source: patent publication US20250215016A1, “ISOXAZOLE-HETEROCYCLIC DERIVATIVE, PHARMACEUTICAL COMPOSITION AND USE” (SHANGHAI SIMR BIOTECHNOLOGY CO., LTD, priority 2022, published 2025)

What was measured:
[1] = Stability in simulated gastric fluid (SGF); type: physicochemical; settings: 37° C., 1000 rpm
Procedure: Simulated gastric fluid (SGF), Manufacturer: Dongguan Chuangfeng Automation Technology Co., Ltd.; Product model: CF-006.
Oscillating constant temperature metal bath, Model: Thermo; Manufacturer: Digital Skaking Drybath.
Temperature: 37° C.; rotating speed: 1000 rpm; sampling time: 0, 4 hours.
Chromatographic column: Welch Xtimate C18 3.0×100 mm, 5 μm. Mobile phase: A: 0.04% trifluoroacetic acid (TFA)/H2O (v/v), B: acetonitrile (ACN). Gradient elution was performed according to the following table, flow rate: 1.0 mL/min; injection volume: 5 μL; column temperature: 35° C.; wavelength: 254 nm.
• (a) preparation of 0.04% TFA/H2O: 400 μL of TFA was measured, placed into 1 L of H2O, and homogenously mixed; • (b) Sample stock solution: about 3 mg of test sample was weighed, and prepared into a stock solution of 10 mmol/L using DMSO; • (c) 50 μL of the sample stock solution was taken, placed into a 5 mL volumetric flask, made up to the scale with the addition of SGF, and homogenously mixed. 400 μL of the solution was taken, four samples in parallel, and shaken at 1000 rpm and 37° C.; • (d) every two samples were taken after 0 and 4 hours respectively, 400 μL of acetonitrile was added, and homogenously mixed, followed by liquid phase injection, and calculation of the change % of the main peak area in the solution after 4 hours relative to 0 hour, two average value reports being taken at each time point.

α5-GABAA receptor = α5-GABAA receptor (Homo sapiens (Human), UniProt P18507+P31644); assay: Whole-cell patch clamp electrophysiology, inverse regulation activity in α5β3γ2-HEK293 cells; type: cell-based; settings: compound 100 nM; GABA 0.05-0.06 μM (about EC7-8); clamped at −60 mV; read-out: Inverse regulation efficiency to α5-GABAA receptor
Excerpt: α, β and γ subunits are essential for the formation of a complete functional GABAA receptor. […] The specific subunit protein sequences are as follows: α5 subunit (protein sequence can be found in GenBank accession number: NM_000810.3); α2 subunit (protein sequence can be found in GenBank accession number: NM_000807.4); β3 subunit (protein sequence can be found in GenBank accession number: NM_000814.5); γ2 subunit (protein sequence can be found in GenBank accession number: NM_000816.3).
(§1) The above cell lines were subcultured. Amplification of α5β3γ2-HEK293 and α2β3γ2-HEK293 cells was used to test the affinity of the compounds to benzodiazepine site (BZD) of the GABAA receptor. During the passage of α5β3γ2-HEK293 cells, some of the suspended cells were spread on a glass slide pretreated with Poly-D-Lysine for electrophysiological testing.
The inverse regulation activity of the test drugs on α5-GABAA receptor was detected by an electrophysiological method. The specific method was as follows:
Compound concentration setting: the final concentration of the compounds used for compound screening was 100 nM. GABA concentration was 0.05-0.06 μM (about EC7-8). […] The extracellular fluid (ECS) ingredients for electrophysiology were as follows: 150 mM NaCl, 5 mM KCl, 2.5 mM CaCl2, 1 mM MgCl2, 10 mM HEPES and 10 mM glucose (pH 7.4); the electrode internal solution (ICS) formula for electrophysiology was as follows: 140 mM CsCl, 11 mM EGTA, 10 mM HEPES, 2 mM CaCl2, 1 mM MgCl2, 4 mM MgATP, 2 mM TEA (pH 7.3). The above reagents were all purchased from Sigma aldrich. GABA (γ-aminobutyric acid, from sigma aldrich, lot: A5385) powder was prepared into a stock solution with pure water and then diluted in ECS. The compound was first prepared into a 4 mM stock solution with DMSO, and then gradually diluted in corresponding concentrations of GABA-ECS. The solutions were all prepared fresh prior to electrophysiological testing.
Electrophysiological signal acquisition were performed by using EPC 10 amplifier and PatchMaster software (HEKA) or Axon 700 B amplifier and Clampex software (AXON). The recording electrode was made by drawing borosilicate glass (purchased from sutter), and has an electrode resistance of 4˜6 MΩ. Extracellular administration was carried out using ALA-VC-8PG (purchased from ALA, USA) system. A single independently grown cell was selected, and lysis was performed after the glass electrode and the cell forming a good seal, to form a whole cell mode. With the cellular membrane potential clamped at −60 mV, recording was carried out in the Gap-free mode. For the test, extracellular fluid was first applied extracellularly for about 20 seconds. After baseline (Iprebaseline) was stabilized, the extracellular fluid was switched to GABA-ECS. At this time, the current (Igaba) caused by GABA can be detected. At about 20-40 seconds, after the current stabilized, the extracellular fluid was switched to a mixed solution of the compound and GABA-ECS, until the current (Itreatment) caused by both the compound and GABA can be detected. Finally, the solution was switched to the extracellular fluid and the test was terminated after recording for 20-40 seconds.
The experimental results were analyzed using PatchMaster v2x90.1 or PatchMaster v2x90.3 software (EPC 10 amplifier) and Clampex10.6 software (Axon700B amplifier). The current value of each stage was calculated according to the average value of the stabilized current under the corresponding conditions. We defined the control current as Igaba−Iprebaseline, and the current after compound treatment as Itreatment−Iprebaseline. The inverse regulation activity of the compounds is expressed as a percentage and is calculated according to the following formula: Inverse regulation efficiency=[(Itreatment−Igaba)/(Igaba−Iprebaseline)]×100%.

[2] = target: human α5β3γ2 receptor (α5-GABAA receptor) (Homo sapiens (Human), UniProt P18507+P31644); assay: Radioligand (3H-flunitrazepam) competition binding assay, BZD site; settings: 3H-flunitrazepam 1 nM; HEK293 membranes expressing human α5β3γ2
Excerpt: α, β and γ subunits are essential for the formation of a complete functional GABAA receptor. In this example, HEK293 cell strains stably expressing human α5-GABAA receptor (comprising α5β3γ2 subunit) and α2-GABAA receptor (comprising α2β3γ2 subunit) were constructed and screened, respectively, by liposome transfection method (Felgner, P. L., et al., Proceedings of the National Academy of Sciences, 1987, 84:7413-7417). The specific subunit protein sequences are as follows: α5 subunit (protein sequence can be found in GenBank accession number: NM_000810.3); α2 subunit (protein sequence can be found in GenBank accession number: NM_000807.4); β3 subunit (protein sequence can be found in GenBank accession number: NM_000814.5); γ2 subunit (protein sequence can be found in GenBank accession number: NM_000816.3).
as §1
Flunitrazepam is a non-specific reagent that binds to the BZD site efficiently. The affinity of the compounds to the BZD sites of the human α5β3γ2 and α2β3γ2 receptors can be determined by competing the compound with ^3H-flunitrazepam (isotope ^3H-labeled flunitrazepam) for binding to these two receptors.
Membrane preparation: HEK293 cells stably expressing human α5β3γ2 receptor or α2β3γ2 receptor were collected, suspended in 50 mM Tris-HCl buffer (pH=7.4), homogenized on ice by a homogenizer for 20 seconds 10 times, and centrifuged at 4° C., 1000 g for 10 min. The supernatant was collected, and the above steps were repeated. The supernatant was centrifuged (33800 g; centrifuge purchased from Thermo, rotor model: A27-8×50) at 4° C. for 60 min, and the precipitate was resuspended in Tris buffer (50 mM Tris-HCl, 10 mM MgCl2, 0.5 mM EDTA, 10% glycerol). The precipitate was the cell membrane. Protein content was determined by BCA (Bicinchoninic Acid) method (BCA kit from Pierce (Annoron)). The cell membrane was prepared into 1 ml aliquot and stored at −80° C.
Radioligand competition binding assay: the assay was carried out in a 200 μL system (96-well plate from Agilent) with 100 μL of cell membrane. The concentration of ^3H-flunitazepam (from PerkinElmer, lot: NET567250 UC) was 1 nM and the concentration of test compound was in the range 1×10^−5-10^−6 M. Flumazenil (from Tocris; lot: 1318) was used as a control. 1 μL of 2 mM flumazenil (final concentration 10 μM) was added to the Low signal control well (Low control, LC) and 1 μL of DMSO (from Sigma aldrich, lot: 472301) was added to the High signal control well (High control, HC). The final target membrane protein concentration was 5 μg/well. All test compound sample stocks were 10 mM DMSO solutions. The working concentration of the samples is to dilute all samples with DMSO to 0.2 mM, and then perform 4-fold continuous gradient dilution for a total of 8 concentration gradients. The 96-well plate was sealed with a plate sealing membrane and then incubated on a shaker at room temperature for 1 hour. Meanwhile, GF/C filter plate was soaked with a plate soaking buffer (0.3% PEI, polyethyleneimine, purchased from Sigma aldrich, model: P314, stored at 4° C.) for at least 0.5 hours. After completion of binding incubation, the cells were collected with a cell collector onto the GF/C filter plate and washed four times with a plate washing buffer (50 mM Tris-HCl, pH 7.4, stored at 4° C.). […]

Residual content in simulated gastric juice after 4 hours (compared with 0 hour content) [1]	inhibition at 0.1 µM (α5-GABAA receptor) [%]	Ki [2] [nM]	Structure (SMILES)
82% (4 hours)	31	–	Cc1onc(-c2ccc(F)cc2)c1COc1cnc(-c2cc3n(c(=O)n2)CCN3C)cn1 [Compound 47, 7-(5-((3-(4-fluorophenyl)-5-methylisoxazol-4-yl)methoxy)pyrazin-2-yl)-1-methyl-2,3-dihydroimidazo[1,2-c]pyrimidin-5(1H)-one]
46% (4 hours)	29	7.7	Cc1onc(-c2ccc(F)cc2)c1COc1ccc(-c2nnc3n2CCN(C)C3=O)cn1 [Compound 2, 3-(6-((3-(4-fluorophenyl)-5-methylisoxazol-4-yl)methoxy)pyridin-3-yl)-7-methyl-6,7-dihydro-[1,2,4]triazolo[4,3-a]pyrazin-8 (5H)-one]
93% (4 hours)	24	2.6	Cc1onc(-c2ccc(F)cc2)c1COc1cnc(-c2nnn3c2COCC3)cn1 [Compound 12, 3-(5-((3-(4-fluorophenyl)-5-methylisoxazol-4-yl)methoxy)pyrazin-2-yl)-6,7-dihydro-4H-[1,2,3]triazolo[5,1-c][1,4]oxazine]
83% (4 hours)	35	4.93	Cc1onc(-c2ccc(F)cc2)c1COc1cnc(-c2nnc3n2CCCC3)cn1 [Compound 32, 3-(4-fluorophenyl)-5-methyl-4-(((5-(5,6,7,8-tetrahydro-[1,2,4]triazolo[4,3-a]pyridin-3-yl)pyrazin-2-yl)oxy)methyl)isoxazole]
94% (4 hours)	36	0.99	Cc1onc(-c2ccc(F)cc2)c1COc1cnc(-c2cnn3c2COCC3)cn1 [Compound 44, 3-(5-((3-(4-fluorophenyl)-5-methylisoxazol-4-yl)methoxy)pyrazin-2-yl)-6,7-dihydro-4H-pyrazolo[5,1-c][1,4]oxazine]
88% (4 hours)	25	68.5	Cc1onc(-c2ccc(F)cc2)c1COc1cnc(N2CCn3ccnc3C2)cn1 [Compound 48, 4-(((5-(5,6-dihydroimidazo [1,2-a]pyrazin-7(8H)-yl)pyrazin-2-yl)oxy)methyl)-3-(4-fluorophenyl)-5-methylisoxazole]
82% (4 hours)	49	8.63	Cc1onc(-c2ccc(F)cc2)c1COc1ccc(-n2nnc3c2CCOC3)cn1 [Compound 50, 1-(6-((3-(4-fluorophenyl)-5-methylisoxazol-4-yl)methoxy)pyridin-3-yl)-1,4,6,7-tetrahydropyran[3,4-d][1,2,3]triazole]
31% (4 hours)	37	3.84	Cc1onc(-c2ccc(F)cc2)c1COc1ccc(N2CCN3CCOC[C@@H]3C2)nn1 [Compound 49, (S)-8-[6-((3-(4-fluorophenyl)-5-methylisoxazol-4-yl)methoxy)pyridazin-3-yl] octahydropyrazino[2,1-c][1,4]oxazine]
63% (4 hours)	39	3.9	Cc1onc(-c2ccc(F)cc2)c1COc1cnc(N2CCn3c(C)nnc3C2)cn1 [Compound 27]
102% (4 hours)	24	1.66	Cc1onc(-c2ccc(F)cc2)c1COc1cnc(-c2cnn3c2CCC3)cn1 [Compound 3]
76% (4 hours)	15	6.93	Cc1onc(-c2ccc(F)cc2)c1COc1cnc(-c2nnc3n2CCN(C)C3)cn1 [Compound 16]
